According to ChEMBL document CHEMBL5465560, “Selectivity Literature for EUbOPEN Chemogenomic Library” (2024):
Each block holds one molecule with its values, some of them ahead of it.

Key:
[1] = target: Serine/threonine-protein kinase SBK1 (Homo sapiens) (UniProt Q52WX2); experiment: Selectivity interaction (Ambit KINOMEscan and KiNATiv profiling in Jurkat cells) EUB0000090b SBK1; assay type: cell-based; settings: at 1 µM
[2] = target: T1, Myosin light chain kinase (Homo sapiens) (UniProt Q32MK0); experiment: Selectivity interaction (KinomeScan (DiscoverX)) EUB0001079a MYLK3; settings: at 1 µM
T1 sequence (whole entry): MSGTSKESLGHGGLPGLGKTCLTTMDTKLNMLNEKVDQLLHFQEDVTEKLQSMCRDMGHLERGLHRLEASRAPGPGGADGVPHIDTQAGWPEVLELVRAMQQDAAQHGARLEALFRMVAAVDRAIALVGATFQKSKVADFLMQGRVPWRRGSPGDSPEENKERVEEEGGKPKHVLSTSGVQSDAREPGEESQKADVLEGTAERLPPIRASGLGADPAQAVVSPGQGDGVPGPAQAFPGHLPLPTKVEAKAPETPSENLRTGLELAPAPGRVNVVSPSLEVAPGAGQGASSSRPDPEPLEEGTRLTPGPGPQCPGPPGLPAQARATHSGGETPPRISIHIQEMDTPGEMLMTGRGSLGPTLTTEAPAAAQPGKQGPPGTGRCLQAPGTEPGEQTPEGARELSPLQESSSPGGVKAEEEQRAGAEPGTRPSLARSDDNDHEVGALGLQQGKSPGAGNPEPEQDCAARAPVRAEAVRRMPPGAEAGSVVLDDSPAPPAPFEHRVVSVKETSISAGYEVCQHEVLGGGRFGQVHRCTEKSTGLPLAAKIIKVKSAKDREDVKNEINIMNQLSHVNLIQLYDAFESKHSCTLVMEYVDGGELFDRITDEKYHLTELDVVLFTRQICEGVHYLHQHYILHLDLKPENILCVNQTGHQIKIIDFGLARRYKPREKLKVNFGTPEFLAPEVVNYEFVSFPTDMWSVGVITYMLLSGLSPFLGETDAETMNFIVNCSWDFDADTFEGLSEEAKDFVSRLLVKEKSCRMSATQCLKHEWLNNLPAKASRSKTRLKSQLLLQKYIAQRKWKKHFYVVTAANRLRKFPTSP

[3] = target: T2, Serine/threonine-protein kinase ULK3 (Homo sapiens) (UniProt Q6PHR2); experiment: Selectivity interaction (ActivX KiNativ screen (kinase selectivity in THP-1 cell lysates)) EUB0000639a ULK3; assay type: subcellular; settings: lysate, at 0.04 µM
T2 sequence (whole entry): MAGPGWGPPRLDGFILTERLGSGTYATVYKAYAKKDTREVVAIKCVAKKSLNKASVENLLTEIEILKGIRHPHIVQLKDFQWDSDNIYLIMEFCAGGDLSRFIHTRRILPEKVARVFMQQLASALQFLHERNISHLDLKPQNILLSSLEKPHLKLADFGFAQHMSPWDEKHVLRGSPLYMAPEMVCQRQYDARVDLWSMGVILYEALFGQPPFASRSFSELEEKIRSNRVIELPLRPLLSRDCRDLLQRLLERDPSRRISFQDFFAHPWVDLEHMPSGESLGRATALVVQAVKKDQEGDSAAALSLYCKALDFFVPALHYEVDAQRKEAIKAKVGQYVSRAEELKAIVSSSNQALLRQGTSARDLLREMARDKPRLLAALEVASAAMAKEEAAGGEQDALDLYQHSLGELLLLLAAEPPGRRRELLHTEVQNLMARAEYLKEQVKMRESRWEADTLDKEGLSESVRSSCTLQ

[4] = target: T3, Tyrosine-protein kinase JAK3 (Homo sapiens) (UniProt P52333); experiment: Selectivity interaction (Kinase panel (Z-LYTE Assay)) EUB0001632a JAK3; settings: at 10 µM
T3 sequence (whole entry): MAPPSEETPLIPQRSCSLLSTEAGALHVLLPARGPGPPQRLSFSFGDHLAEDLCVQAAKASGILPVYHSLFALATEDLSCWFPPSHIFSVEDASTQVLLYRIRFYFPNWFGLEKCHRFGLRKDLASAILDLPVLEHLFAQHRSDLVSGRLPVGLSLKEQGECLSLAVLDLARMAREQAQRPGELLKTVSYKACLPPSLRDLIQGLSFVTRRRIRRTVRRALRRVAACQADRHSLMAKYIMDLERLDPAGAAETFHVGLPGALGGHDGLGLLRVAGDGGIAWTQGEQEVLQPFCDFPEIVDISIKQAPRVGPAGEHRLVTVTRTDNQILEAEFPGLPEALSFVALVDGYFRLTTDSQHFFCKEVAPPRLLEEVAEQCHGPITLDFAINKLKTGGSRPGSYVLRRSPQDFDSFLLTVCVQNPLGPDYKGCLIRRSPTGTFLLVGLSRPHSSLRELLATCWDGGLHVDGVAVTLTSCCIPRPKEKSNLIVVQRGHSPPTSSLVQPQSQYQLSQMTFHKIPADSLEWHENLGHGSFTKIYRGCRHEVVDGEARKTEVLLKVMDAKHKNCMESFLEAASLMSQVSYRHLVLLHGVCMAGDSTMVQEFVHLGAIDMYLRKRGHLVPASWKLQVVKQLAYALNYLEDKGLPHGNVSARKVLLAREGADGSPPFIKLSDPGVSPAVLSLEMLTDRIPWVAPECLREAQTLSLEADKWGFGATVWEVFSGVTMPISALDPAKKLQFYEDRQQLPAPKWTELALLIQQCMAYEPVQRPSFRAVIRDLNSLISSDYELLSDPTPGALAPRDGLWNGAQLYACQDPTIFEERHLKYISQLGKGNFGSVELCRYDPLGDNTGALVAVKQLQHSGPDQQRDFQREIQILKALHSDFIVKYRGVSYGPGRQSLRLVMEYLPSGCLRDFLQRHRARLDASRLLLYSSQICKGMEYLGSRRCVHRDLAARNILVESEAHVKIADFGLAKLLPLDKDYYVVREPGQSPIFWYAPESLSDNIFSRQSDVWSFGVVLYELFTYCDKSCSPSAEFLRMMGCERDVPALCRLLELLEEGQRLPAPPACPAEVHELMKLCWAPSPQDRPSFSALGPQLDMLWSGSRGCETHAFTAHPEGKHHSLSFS

Sequence of Serine/threonine-protein kinase SBK1 (Homo sapiens) (Q52WX2 whole entry): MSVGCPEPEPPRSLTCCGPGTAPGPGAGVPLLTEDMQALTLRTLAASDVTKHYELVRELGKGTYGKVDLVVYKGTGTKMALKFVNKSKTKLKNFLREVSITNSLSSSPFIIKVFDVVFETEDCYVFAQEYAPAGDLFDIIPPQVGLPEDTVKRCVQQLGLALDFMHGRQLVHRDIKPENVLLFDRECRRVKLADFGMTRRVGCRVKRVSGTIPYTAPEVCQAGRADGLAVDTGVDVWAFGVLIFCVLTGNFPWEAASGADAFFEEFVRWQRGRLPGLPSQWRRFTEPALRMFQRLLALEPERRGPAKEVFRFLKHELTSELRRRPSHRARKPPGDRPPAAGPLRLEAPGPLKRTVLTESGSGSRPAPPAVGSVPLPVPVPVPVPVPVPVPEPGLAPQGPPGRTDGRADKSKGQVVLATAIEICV

Structure (SMILES): CN(C)C/C=C/C(=O)Nc1ccc(C(=O)N2CCCC(Nc3ncc(Cl)c(-c4c[nH]c5ccccc45)n3)C2)cc1 (centres undefined)
- % of control [1]: 100%

Structure (SMILES): Nc1cnc(N2CCc3cc(S(=O)(=O)Nc4c(F)cc(Cl)cc4F)cc(N4CCCC4=O)c32)nc1 [TP-020n]
- % of control [2]: 100%

- % of inhibition [3]: -22.9%
Structure (SMILES): CC[C@@H]1[C@H](F)C(=O)N[C@@H]1COc1nccc2cc(C(N)=O)c(OC)cc12 [ZIMLOVISERTIB]

- % of control [4]: 16.9%
Structure (SMILES): Cn1cc(-n2cnc3c(NCc4nc5cc(Cl)c(Cl)cc5[nH]4)nc(N4CCOCC4)nc32)cn1
